Laboratory results reported in patent US20170233409A1, “TYPE IV SECRETION SYSTEM INHIBITORS” (priority 2016, published 2017).

How the values were obtained:
[1] = test system: H. pylori cag T4SS; assay type: cell-based; conditions: for T4SS Inhibiton [50 μM] (TLR9 Activation Assay): no bacterial pre-treatment, about 18 hours post-infection, HEK293-TLR9 cells
[2] = test system: cag T4SS; assay type: cell-based, H. pylori; conditions: for LogEC50, attenuation of cag T4SS-dependent IL-8 secretion / EC50: 4.5 h co-culture, normalized IL-8 secretion, non-linear regression; for cag T4SS-dependent IL-8 secretion: H. pylori-gastric epithelial cell co-culture, 25-150 μM; for EC50: read-out: EC50, attenuation of cag T4SS-dependent IL-8 secretion
[3] = test system: H. pylori; test: H. pylori viability (cellular ATP, CellTiter-Glo); assay type: cell-based; conditions: for viability of bacterial cells: concentrations up to 150 μM; for H. pylori Toxicity: 150 μM, cellular ATP at 18 h of incubation
[4] = test system: cag T4SS; assay type: cell-based, H. pylori; conditions: screening library, tested concentrations
[5] = test system: cag T4SS; test: NF-κB luciferase reporter activation by H. pylori in AGS cells; assay type: cell-based; conditions: for cag T4SS-dependent NF-κB activation: WT H. pylori, AGS NF-κB-luc cells
Method: Quantitation of NF-κB signaling activation. AGS cells stably transfected with an NF-κB-luciferase reporter (AGS NF-κB-luc) were cultured for 24 h and treated as described for the IL-8 induction studies. After 4 h co-culture with H. pylori, cell monolayers were washed with sterile PBS, and cell monolayer extracts were obtained by passive cell lysis. NF-κB-luciferase activity was measured by the Steady-Glo Luciferase Assay System (Promega) on a BioTek Synergy 4 plate reader, and plates were normalized to the DMSO vehicle control for each dilution series.

[6] = biological target: T1, TLR9 (Homo sapiens, UniProt Q9NR96); test: TLR9 activation by CpG ODN (control); assay type: cell-based; conditions: 50 μM
T1 construct: host or cells: HEK293-TLR9 reporter cell line
T1 sequence (Q9NR96 26-1032): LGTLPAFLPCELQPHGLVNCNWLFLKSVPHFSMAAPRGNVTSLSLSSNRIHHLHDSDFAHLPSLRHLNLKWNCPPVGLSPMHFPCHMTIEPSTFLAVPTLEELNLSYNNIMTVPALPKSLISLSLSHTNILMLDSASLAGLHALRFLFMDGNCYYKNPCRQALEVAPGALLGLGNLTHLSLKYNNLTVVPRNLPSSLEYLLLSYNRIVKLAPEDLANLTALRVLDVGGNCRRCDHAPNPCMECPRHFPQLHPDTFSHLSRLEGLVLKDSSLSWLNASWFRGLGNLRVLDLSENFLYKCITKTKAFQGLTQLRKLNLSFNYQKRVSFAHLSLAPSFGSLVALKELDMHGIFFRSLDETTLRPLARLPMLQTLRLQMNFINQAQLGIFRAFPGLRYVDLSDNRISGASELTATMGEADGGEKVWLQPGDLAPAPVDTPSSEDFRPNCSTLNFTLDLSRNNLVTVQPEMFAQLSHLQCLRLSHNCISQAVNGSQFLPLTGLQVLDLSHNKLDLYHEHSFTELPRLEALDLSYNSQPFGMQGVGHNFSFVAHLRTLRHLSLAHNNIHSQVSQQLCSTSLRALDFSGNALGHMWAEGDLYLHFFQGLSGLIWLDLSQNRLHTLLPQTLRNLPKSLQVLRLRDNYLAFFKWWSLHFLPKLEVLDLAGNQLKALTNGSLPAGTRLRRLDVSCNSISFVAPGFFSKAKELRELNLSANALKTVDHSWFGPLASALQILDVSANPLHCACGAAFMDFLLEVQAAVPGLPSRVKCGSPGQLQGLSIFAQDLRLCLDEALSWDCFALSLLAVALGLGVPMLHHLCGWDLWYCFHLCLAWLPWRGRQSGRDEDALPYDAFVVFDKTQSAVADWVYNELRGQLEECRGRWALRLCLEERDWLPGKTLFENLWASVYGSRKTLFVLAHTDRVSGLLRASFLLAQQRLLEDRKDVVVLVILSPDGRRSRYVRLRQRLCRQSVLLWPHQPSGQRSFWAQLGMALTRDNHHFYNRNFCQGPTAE
Method: Inhibition of T4SS-dependent activation of human TLR9 signaling by H. pylori. H. pylori strain J166 was grown in broth culture overnight, and was subsequently pre-treated in the indicated compound at a final concentration of 50 μM, or in an equivalent volume of DMSO vehicle for 30 min prior to inoculating cultured HEK293-TLR9 reporter cell lines. Co-cultures were incubated in the presence of 50 μM compound or an equivalent volume of DMSO vehicle supplemented in the cell culture media for the duration of incubation (18 hours). TLR9 activation was assayed using a colorimetric assay (Invivogen), and TLR9 activation in the presence of type IV secretion system (T4SS) inhibitor compounds is expressed as a percentage of TLR9 activation by H. pylori in the presence of vehicle. As a control, TLR9 was activated with the immunostimulatory synthetic ligand CpG oligodeoxynucleotide (CpG ODN) in the presence of DMSO or inhibitor compound at 50 μM final concentration.

[7] = test system: IncN group conjugative T4SS encoded by pKM101; test: DNA conjugation efficiency, pKM101; conditions: 150 μM, compared to vehicle controls
Method: (§1) Analysis of DNA conjugation efficiency. Overnight cultures of donor E. coli MG1655 harboring pKM101, donor E. coli MS411 harboring R1-16, and recipient E. coli MG1655 (WM1652) were grown at 37° C. with shaking at 225 rpm in LB/antibiotic, were diluted in antibiotic-free LB containing DMSO or 150 μM compound, and incubated with shaking at 37° C. to reach an OD600 of ˜0.3. Donor and recipient cells were mixed at a ratio of 1:1 on 0.22 μM pore size mixed cellulose ester filters (Millipore) on antibiotic-free LB plates for 2 h at 37° C. Filters were aseptically removed from LB plates and incubated in 100 μl antibiotic-free LB to dislodge E. coli from membranes. Serial dilutions were plated on the appropriate antibiotic (or dual antibiotic) LB plates to determine the number of donor, recipient, and transconjugant cells. Colonies were enumerated after 24 h, and conjugation efficiencies were calculated by dividing the average number of transconjugates by the average number of donors (either pKM101 or R1-16 donor cells). Conjugation efficiency in the presence of compound is expressed as a percentage of conjugation efficiency in DMSO.

[8] = test system: cag T4SS; test: CagA translocation assay (tyrosine-phosphorylated CagA immunoblot); assay type: cell-based, H. pylori; conditions: 150 μM; compared to vehicle-only and GKP42-treated controls
[9] = test system: IncF group R1-16 conjugative T4SS; test: DNA conjugation efficiency, R1-16; conditions: 150 μM
Method: as §1

COc1ccc(Cc2cc(=O)n3c(c2C2CC2)SC[C@@H]3C(=O)O)c2ccccc12 [(S)-JG202, (S)-8-cyclopropyl-7-((4-methoxynaphthalen-1-yl)methyl)-5-oxo-2,3-dihydro-5H-thiazolo[3,2-a]pyridine-3-carboxylic acid]
T4SS Inhibiton [50 μM] (TLR9 Activation Assay) [1]: ++

CCOc1ccc(Cc2cc(=O)n3c(c2C2CC2)SC[C@H]3C(=O)O)c2ccccc12 [(R)-JG131, (R)-8-cyclopropyl-7-((4-ethoxynaphthalen-1-yl)methyl)-5-oxo-2,3-dihydro-5H-thiazolo[3,2-a]pyridine-3-carboxylic acid]
T4SS Inhibiton [50 μM] (TLR9 Activation Assay) [1]: +++ (Very good T4SS inhibition (reproducibly inhibits T4SS activity by at least 50%, with representative results of about 80% inhibition at higher concentrations))

O=C(O)C1CS(=O)(=O)c2c(C3CC3)c(Cc3cccc4ccccc34)cc(=O)n21 (stereo not shown) [TW460, 8-cyclopropyl-7-(naphthalen-1-ylmethyl)-5-oxo-2,3-dihydro-5H-thiazolo[3,2-a]pyridine-3-carboxylic acid 1,1-dioxide]
T4SS Inhibiton [50 μM] (TLR9 Activation Assay) [1]: +

O=C(O)[C@@H]1CSc2c(C3CC3)c3cn(-c4ccccc4)cc3c(=O)n21 [GKP42, (3R)-9-cyclopropyl-5-oxo-7-phenyl-2,3,5,7-tetrahydropyrrolo[3,4-d][1,3]thiazolo[3,2-a]pyridine-3-carboxylic acid]
LogEC50, attenuation of cag T4SS-dependent IL-8 secretion [2]: −0.648
cag T4SS-dependent IL-8 secretion [2]: minimal or no effects
EC50 [2]: 225 µM
viability of bacterial cells [3]: did not impact viability
cag T4SS activity, structure-activity statements [4]: inactive
cag T4SS-dependent NF-κB activation [5]: did not attenuate

O=C(O)[C@@H]1CSc2c(-c3cccc(C(F)(F)F)c3)c(Cc3cccc(COc4cccc5ccccc45)c3)cc(=O)n21 [CB151]
H. pylori Toxicity [3]: Toxic

O=C(O)C1CSc2c(C3CC3)c(Cc3ccc(C(F)(F)F)c4ccccc34)cc(=O)n21 (stereo not shown) [KSK88, 8-cyclopropyl-5-oxo-7-((4-(trifluoromethyl)naphthalen-l1yl)methyl)-2,3-dihydro-5H-thiazolo[3,2-a]pyridine-3-carboxylic acid]
T4SS Inhibiton [50 μM] (TLR9 Activation Assay) [1]: +++ (Very good T4SS inhibition (reproducibly inhibits T4SS activity by at least 50%, with representative results of about 80% inhibition at higher concentrations))

O=C(O)C1CSc2c(C3CC3)c(Cc3ccc(OC4O[C@H](CO)[C@@H](O)[C@@H](O)[C@@H]4O)c4ccccc34)cc(=O)n21 (stereo partly drawn) [PS402, 8-cyclopropyl-5-oxo-7-((4-(((3S,4R,5S,6R)-3,4,5-trihydroxy-6-(hydroxymethyl)tetrahydro-2H-pyran-2-yl)oxy)naphthalen-1-yl)methyl)-2,3-dihydro-5H-thiazolo[3,2-a]pyridine-3-carboxylic acid]
T4SS Inhibiton [50 μM] (TLR9 Activation Assay) [1]: ++

O=C(O)[C@@H]1CSc2c(-c3cccc(C(F)(F)F)c3)c(Cc3cccc4ccccc34)cc(=O)n21 [FN075, reference compound]
H. pylori Toxicity [3]: Toxic
cag T4SS activity, structure-activity statements [4]: not tolerated

O=C([O-])[C@@H]1CSc2c(C3CC3)c(Cc3cccc4ccccc34)c(CN3CCOCC3)c(=O)n21.[Li+] [NP048]
cag T4SS activity, structure-activity statements [4]: abolished activity

O=C(O)[C@@H]1CSc2c(C3CC3)c3c(-c4cccc5ccccc45)n[nH]c3c(=O)n21 [MS218]
cag T4SS activity, structure-activity statements [4]: inactive

COc1ccc2cc(Cc3cc(=O)n4c(c3C3CC3)SC[C@H]4C(=O)O)ccc2c1 [CB158, (R)-8-cyclopropyl-7-((6-methoxynaphthalen-2-yl)methyl)-5-oxo-2,3-dihydro-5H-thiazolo[3,2-a]pyridine-3-carboxylic acid]
T4SS Inhibiton [50 μM] (TLR9 Activation Assay) [1]: +

O=C(Nc1ccccc1)C1CSc2c(C3CC3)c(Cc3cccc4ccccc34)cc(=O)n21 (stereo not shown) [KSK165]
T4SS Inhibiton [50 μM] (TLR9 Activation Assay) [1]: +++ (Very good T4SS inhibition (reproducibly inhibits T4SS activity by at least 50%, with representative results of about 80% inhibition at higher concentrations))

O=C(O)[C@@H]1CSc2c(C3CC3)c(Cc3cccc(COc4cccc5ccccc45)c3)cc(=O)n21 [CB160]
H. pylori Toxicity [3]: Toxic

O=C([O-])[C@@H]1CSc2c(-c3ccccc3)c(Cc3cccc4ccccc34)cc(=O)n21.[Li+] [PhenylC8]
cag T4SS activity, structure-activity statements [4]: not tolerated

Cc1cccc(-c2sc3c(-c4cn(C)c5ccccc45)c(COc4cccc5ccccc45)c(CN4CCOCC4)c(=O)n3c2C(=O)O)c1.Cl [EC341]
H. pylori Toxicity [3]: Toxic

O=c1cc(Cc2cccc3ccccc23)c(C2CC2)c2n1CCS2 [EC013]
T4SS Inhibiton [50 μM] (TLR9 Activation Assay) [1]: +++ (Very good T4SS inhibition (reproducibly inhibits T4SS activity by at least 50%, with representative results of about 80% inhibition at higher concentrations))

O=C(O)[C@H]1CSc2c(C3CC3)c(Cc3cccc4ccccc34)cc(=O)n21 [JG14, (S)-8-cyclopropyl-7-(naphthalen-1-ylmethyl)-5-oxo-2,3-dihydro-5H-thiazolo[3,2-a]pyridine-3-carboxylic acid]
T4SS Inhibiton [50 μM] (TLR9 Activation Assay) [1]: ++

O=C(O)C1CSc2c(C3CC3)c(Cc3cccc4ccccc34)cc(=O)n21 (racemic) [rac-C10]
T4SS Inhibiton [50 μM] (TLR9 Activation Assay) [1]: ++

O=C(O)[C@@H]1CSc2c(C3CC3)c(Cc3ccc4ccccc4c3)cc(=O)n21 [KSK61, (R)-8-cyclopropyl-7-(naphthalen-2-ylmethyl)-5-oxo-2,3-dihydro-5H-thiazolo[3,2-a]pyridine-3-carboxylic acid]
T4SS Inhibiton [50 μM] (TLR9 Activation Assay) [1]: ++

O=C(O)[C@@H]1CSc2c(C3CC3)c(Cc3cccc4ccccc34)cc(=O)n21 [Compound C10, (3R)-8-cyclopropyl-7-(naphthalen-1-ylmethyl)-5-oxo-3,5-dihydro-2H-thiazolo[3,2-a]pyridine-3-carboxylic acid]
LogEC50, attenuation of cag T4SS-dependent IL-8 secretion [2]: −1.19
cag T4SS-dependent IL-8 secretion [2]: significantly reduced
EC50 [2]: 64.5 µM
viability of bacterial cells [3]: did not impact viability
activation of TLR9 by CpG ODN [6]: not by CpG ODN
DNA conjugation efficiency of pKM101 [7]: reduced
cag T4SS-dependent NF-κB activation [5]: significantly reduced
cag T4SS-mediated NF-κB activation by H. pylori strains of different phylogeographic origins ([5]; multiple H. pylori strains): inhibited
NF-κB activation by H. pylori ΔcagA mutant compared to WT strain ([5]; ΔcagA mutant): the same as those observed in the WT strain
amount of tyrosine-phosphorylated CagA in cultured gastric epithelial cells [8]: significantly reduced
T4SS Inhibiton [50 μM] (TLR9 Activation Assay) [1]: ++
T4SS-dependent activation of TLR9 by H. pylori ([1]; strain J166 pre-treated 30 min, 50 μM, 18 hours): inhibit
DNA conjugation efficiency of the de-repressed R1-16 system [9]: reduced DNA transfer

O=C(O)c1c(Cc2ccccc2)sc2c(C3CC3)c(Cc3cccc4ccccc34)cc(=O)n12 [EC240, reference compound]
H. pylori Toxicity [3]: Toxic
cag T4SS activity, structure-activity statements [4]: not tolerated
